Literature values in US10751314B2, “Compositions comprising rumenic acid-rich conjugated linoleic acid for joint health” (STEPAN SPECIALTY PRODUCTS, LLC, priority 2016, dated 2020).

Tests used:
PPARγ = conditions: mouse macrophage cells
[1] = test system: young men and women with birch pollen allergy; conditions: 8 weeks of supplementation
human epithelial cells = conditions: via activation of PPARγ

SMILES: CCCCCC/C=C/C=C\CCCCCCCC(=O)O [RA, cis-9, trans-11 linoleic acid]
- Antioxidant activity (PPARγ): served as an antioxidant
- PPARγ activation (PPARγ): activated
- Allergic responses mediated by inflammation [1]: reduced
- Inflammatory responses (human epithelial cells): reduced inflammatory responses
